Reference: US10597388B2, “Pyridazinone herbicides” (FMC CORPORATION, priority 2014, dated 2020)

Columns and labels:
Type in all cases: in vivo
[1] = system: waterhemp (common waterhemp, Amaranthus rudis); experiment: Test C greenhouse herbicide test, pre- and postemergence
Outline: (§1)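 Pre- and postemergence greenhouse screen; values are visual control ratings, 0 meaning no effect and 100 complete kill, assigned relative to untreated plants after 13 to 15 d.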

[2] = system: johnsongrass (Sorghum halepense); experiment: as above
Outline: as §1

[3] = system: morningglory (Ipomoea coccinea); experiment: as above
Outline: as §1

[4] = system: wheat (winter wheat, Triticum aestivum); experiment: as above
Outline: as §1

[5] = system: lambsquarters (Chenopodium album); experiment: as above
Outline: as §1

[6] = system: foxtail, giant (giant foxtail, Setaria faberii); experiment: as above
Outline: as §1

[7] = system: crabgrass, large (large crabgrass, Digitaria sanguinalis); experiment: as above
Outline: as §1

corn (Zea mays) = experiment: as above
Outline: as §1

[8] = system: oilseed rape (Brassica napus); experiment: as above
Outline: as §1

kochia (Kochia scoparia) = experiment: Test A greenhouse herbicide test, pre- and postemergence
Outline: (§2)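 Seeds in loam–sand blend received a preemergence directed soil spray; plants at 2–10 cm, one- to two-leaf stage, received postemergence sprays. Compounds in a non-phytotoxic solvent with surfactant. After about 10 d in a greenhouse, injury rated visually versus untreated controls on a 0–100 scale (100 = complete control).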

[9] = system: barnyardgrass (Echinochloa crus-galli); experiment: as above
Outline: as §2

[10] = Postemergence, 31 g ai/ha, scale 0 to 100 (0 no effect, 100 complete control)
[11] = Postemergence, 125 g ai/ha, scale 0 to 100, 0 is no effect, 100 is complete control
[12] = Postemergence, 250 g ai/ha, scale 0 to 100, 0 no effect, 100 complete control, 13 to 15 d
[13] = Preemergence, 31 g ai/ha, scale 0 to 100, 0 is no effect, 100 is complete control
[14] = Preemergence, 62 g ai/ha, scale 0 to 100, 0 is no effect, 100 is complete control
[15] = Preemergence, 125 g ai/ha, scale 0 to 100, 0 is no effect, 100 is complete control
[16] = Preemergence, 250 g ai/ha, scale 0 to 100, 0 no effect, 100 complete control
[17] = postemergence, 62 g ai/ha, scale 0 to 100, 0 no effect, 100 complete control
[18] = Postemergence, 125 g ai/ha, 0 to 100 scale where 0 is no effect and 100 is complete control
[19] = Postemergence, 500 g ai/ha, visual rating after approx. 10 d, 0 to 100 scale (0 no effect, 100 complete control)
[20] = Preemergence, 125 g ai/ha, 0 to 100 scale where 0 is no effect and 100 is complete control
[21] = Preemergence, 500 g ai/ha, 0 to 100 scale where 0 is no effect and 100 is complete control
[22] = Postemergence, 500 g ai/ha, 0 to 100 scale, 0 is no effect, 100 is complete control

## CCCC(=O)Oc1c(C)nn(C)c(=O)c1-c1c(CC)sc2ccc(C)cc12 [Compound 107]
[1]; [10]
  Plant response rating, Waterhemp: 75
[1]; [11]
  Plant response rating, Waterhemp: 95
[1]; [12]
  Plant response rating, Waterhemp: 90
[1]; [13]
  Plant response rating, Waterhemp: 75
[1]; [14]
  Plant response rating, Waterhemp: 75
[1]; [15]
  Plant response rating, Waterhemp: 95
[1]; [16]
  Waterhemp plant response rating: 98
[2]; [10]
  Plant response rating, Johnsongrass: 0
[2]; [11]
  Plant response rating, Johnsongrass: 0
[2]; [12]
  Plant response rating, Johnsongrass: 20
[2]; [13]
  Plant response rating, Johnsongrass: 0
[2]; [14]
  Plant response rating, Johnsongrass: 0
[2]; [15]
  Plant response rating, Johnsongrass: 10
[2]; [16]
  Johnsongrass plant response rating: 20
[3]; [10]
  Plant response rating, Morningglory: 95
[3]; [11]
  Plant response rating, Morningglory: 98
[3]; [12]
  Plant response rating, Morningglory: 100
[3]; [13]
  Plant response rating, Morningglory: 80
[3]; [14]
  Plant response rating, Morningglory: 85
[3]; [15]
  Plant response rating, Morningglory: 95
[3]; [16]
  Morningglory plant response rating: 98
[4]; [10]
  Plant response rating, Wheat: 0
[4]; [11]
  Plant response rating, Wheat: 0
[4]; [12]
  Plant response rating, Wheat: 0
[4]; [13]
  Plant response rating, Wheat: 0
[4]; [14]
  Plant response rating, Wheat: 0
[4]; [15]
  Plant response rating, Wheat: 0
[4]; [16]
  Wheat plant response rating: 5
[5]; [10]
  Plant response rating, Lambsquarters: 85
[5]; [11]
  Plant response rating, Lambsquarters: 90
[5]; [12]
  Plant response rating, Lambsquarters: 98
[5]; [13]
  Plant response rating, Lambsquarters: 90
[5]; [14]
  Plant response rating, Lambsquarters: 100
[5]; [15]
  Plant response rating, Lambsquarters: 95
[5]; [16]
  Lambsquarters plant response rating: 95
[6]; [10]
  Plant response rating, Foxtail, Giant: 15
[6]; [11]
  Plant response rating, Foxtail, Giant: 70
[6]; [12]
  Plant response rating, Foxtail, Giant: 75
[6]; [13]
  Plant response rating, Foxtail, Giant: 60
[6]; [14]
  Plant response rating, Foxtail, Giant: 80
[6]; [15]
  Plant response rating, Foxtail, Giant: 85
[6]; [16]
  Foxtail, Giant plant response rating: 98
[7]; [10]
  Plant response rating, Crabgrass, Large: 15
[7]; [11]
  Plant response rating, Crabgrass, Large: 35
[7]; [12]
  Plant response rating, Crabgrass, Large: 65
[7]; [13]
  Plant response rating, Crabgrass, Large: 30
[7]; [14]
  Plant response rating, Crabgrass, Large: 30
[7]; [15]
  Plant response rating, Crabgrass, Large: 75
[7]; [16]
  Crabgrass, Large plant response rating: 85
[7]; [17]
  Crabgrass, Large plant response rating: 20
Corn (Zea mays); [10]
  Plant response rating, Corn: 5
Corn (Zea mays); [11]
  Plant response rating, Corn: 20
Corn (Zea mays); [12]
  Plant response rating, Corn: 15
Corn (Zea mays); [13]
  Plant response rating, Corn: 0
Corn (Zea mays); [14]
  Plant response rating, Corn: 0
Corn (Zea mays); [15]
  Plant response rating, Corn: 10
Corn (Zea mays); [16]
  Corn plant response rating: 15
Corn (Zea mays); [17]
  Corn plant response rating: 10
[8]; [10]
  Plant response rating, Oilseed Rape: 25
[8]; [11]
  Plant response rating, Oilseed Rape: 80
[8]; [12]
  Plant response rating, Oilseed Rape: 45
[8]; [13]
  Plant response rating, Oilseed Rape: 0
[8]; [14]
  Plant response rating, Oilseed Rape: 0
[8]; [15]
  Plant response rating, Oilseed Rape: 20
[8]; [16]
  Oilseed Rape plant response rating: 80
Kochia (Kochia scoparia); [18]
  Plant response rating, Kochia: 80
Kochia (Kochia scoparia); [19]
  Plant response rating, Kochia: 90
Kochia (Kochia scoparia); [20]
  Kochia plant response rating: 20
Kochia (Kochia scoparia); [21]
  Plant response rating, Kochia: 90
[9]; [18]
  Plant response rating, Barnyardgrass: 60
[9]; [22]
  Barnyardgrass plant response rating: 100
[9]; [20]
  Barnyardgrass plant response rating: 70
[9]; [21]
  Plant response rating, Barnyardgrass: 100

## CC(=O)Oc1c(C)nn(C)c(=O)c1-c1c(C)sc2ccc(Cl)cc12 [Compound 108]
[1]; [10]
  Plant response rating, Waterhemp: 85
[1]; [11]
  Plant response rating, Waterhemp: 90
[1]; [12]
  Plant response rating, Waterhemp: 98
[1]; [13]
  Plant response rating, Waterhemp: 75
[1]; [14]
  Plant response rating, Waterhemp: 90
[1]; [15]
  Plant response rating, Waterhemp: 100
[1]; [16]
  Waterhemp plant response rating: 100
[2]; [10]
  Plant response rating, Johnsongrass: 0
[2]; [11]
  Plant response rating, Johnsongrass: 5
[2]; [12]
  Plant response rating, Johnsongrass: 5
[2]; [13]
  Plant response rating, Johnsongrass: 0
[2]; [14]
  Plant response rating, Johnsongrass: 5
[2]; [15]
  Plant response rating, Johnsongrass: 30
[2]; [16]
  Johnsongrass plant response rating: 20
[3]; [10]
  Plant response rating, Morningglory: 98
[3]; [11]
  Plant response rating, Morningglory: 98
[3]; [12]
  Plant response rating, Morningglory: 100
[3]; [13]
  Plant response rating, Morningglory: 80
[3]; [14]
  Plant response rating, Morningglory: 90
[3]; [15]
  Plant response rating, Morningglory: 98
[3]; [16]
  Morningglory plant response rating: 98
[4]; [10]
  Plant response rating, Wheat: 0
[4]; [11]
  Plant response rating, Wheat: 5
[4]; [12]
  Plant response rating, Wheat: 10
[4]; [13]
  Plant response rating, Wheat: 0
[4]; [14]
  Plant response rating, Wheat: 10
[4]; [15]
  Plant response rating, Wheat: 15
[4]; [16]
  Wheat plant response rating: 10
[5]; [10]
  Plant response rating, Lambsquarters: 90
[5]; [11]
  Plant response rating, Lambsquarters: 98
[5]; [12]
  Plant response rating, Lambsquarters: 98
[5]; [13]
  Plant response rating, Lambsquarters: 85
[5]; [14]
  Plant response rating, Lambsquarters: 90
[5]; [15]
  Plant response rating, Lambsquarters: 90
[5]; [16]
  Lambsquarters plant response rating: 100
[6]; [10]
  Plant response rating, Foxtail, Giant: 30
[6]; [11]
  Plant response rating, Foxtail, Giant: 75
[6]; [12]
  Plant response rating, Foxtail, Giant: 85
[6]; [13]
  Plant response rating, Foxtail, Giant: 65
[6]; [14]
  Plant response rating, Foxtail, Giant: 85
[6]; [15]
  Plant response rating, Foxtail, Giant: 85
[6]; [16]
  Foxtail, Giant plant response rating: 95
[7]; [10]
  Plant response rating, Crabgrass, Large: 5
[7]; [11]
  Plant response rating, Crabgrass, Large: 25
[7]; [12]
  Plant response rating, Crabgrass, Large: 40
[7]; [13]
  Plant response rating, Crabgrass, Large: 5
[7]; [14]
  Plant response rating, Crabgrass, Large: 70
[7]; [15]
  Plant response rating, Crabgrass, Large: 65
[7]; [16]
  Crabgrass, Large plant response rating: 70
[7]; [17]
  Crabgrass, Large plant response rating: 10
Corn (Zea mays); [10]
  Plant response rating, Corn: 5
Corn (Zea mays); [11]
  Plant response rating, Corn: 25
Corn (Zea mays); [12]
  Plant response rating, Corn: 30
Corn (Zea mays); [13]
  Plant response rating, Corn: 5
Corn (Zea mays); [14]
  Plant response rating, Corn: 10
Corn (Zea mays); [15]
  Plant response rating, Corn: 5
Corn (Zea mays); [16]
  Corn plant response rating: 15
Corn (Zea mays); [17]
  Corn plant response rating: 40
[8]; [10]
  Plant response rating, Oilseed Rape: 80
[8]; [11]
  Plant response rating, Oilseed Rape: 85
[8]; [12]
  Plant response rating, Oilseed Rape: 95
[8]; [13]
  Plant response rating, Oilseed Rape: 5
[8]; [14]
  Plant response rating, Oilseed Rape: 90
[8]; [15]
  Plant response rating, Oilseed Rape: 90
[8]; [16]
  Oilseed Rape plant response rating: 90
Kochia (Kochia scoparia); [18]
  Plant response rating, Kochia: 90
Kochia (Kochia scoparia); [19]
  Plant response rating, Kochia: 100
Kochia (Kochia scoparia); [20]
  Kochia plant response rating: 90
Kochia (Kochia scoparia); [21]
  Plant response rating, Kochia: 100
[9]; [18]
  Plant response rating, Barnyardgrass: 30
[9]; [22]
  Barnyardgrass plant response rating: 90
[9]; [20]
  Barnyardgrass plant response rating: 20
[9]; [21]
  Plant response rating, Barnyardgrass: 100
